According to patent US20250066379A1, “ANTIMALARIAL AGENTS” (Merck Sharp & Dohme LLC, priority 2021, published 2025):

Tested on: parasite
Assay: Parasite LDH growth assay (Parasite Assay)
Assay type: cell-based, Plasmodium falciparum
Details: Plasmodium falciparum, 72 h, ring stage parasites, 72 hours growth at 37° C., LDH readout of parasite growth
Method: Assessing Antiparasite Potency in a Parasite LDH Growth Assay (Parasite Assay) The parasite stock was maintained at 4% haematocrit in RPMI-Hepes media 30 buffered with sodium bicarbonate and supplemented with 5% heat inactivated human serum and 0.5% albumax. Approximately 42 hours prior to the potency assay being set up, parasites were synchronized with 5% sorbitol to select for ring stage parasites. On the day of assay set up, a blood smear of the parasite culture was Giemsa stained and counted. The parasitemia was 35 adjusted to 0.7% rings and the haematocrit was diluted to 2% in RPMI-Hepes media buffered with sodium bicarbonate and supplemented with 5% heat inactivated human serum and 0.5% albumax. 30 ul of diluted parasites are then added into 10 μl of media+compound in pre-prepared Greiner TC assay plates. Parasite assay plates were placed in gassed humidified boxes in single layer and allowed to incubate at 37° C. for 72 hours. After 72 hours growth, assay plates are sealed with parafilm and frozen flat, in single file at −80° C. overnight. On the following day, assay plates were allowed to thaw at room temperature for 4 hours to which an LDH assay was performed to measure parasite growth.

Row | SMILES | EC50 [nM]
1 | CC[C@]12CCC/C=C\c3ccc4c(c3)[C@@H](NC(=O)c3ccc5c(c3)[C@@H](CCO5)N(C(=N)N1)C(=O)C2)[C@H](O)C4 [Example 6, (1R,5R,9Z,16R, 17R)-5-ethyl-16-hydroxy-3-imino-24-oxa-2,4,18-triazahexacyclo[18. 6.2.22,5.211,14.013, 17.023,27] dotriaconta-9,11,13,20,22,27, 29-heptaene-19,32-dione] | 2.8
2 | CC[C@]12CCC/C=C/c3ccc4c(c3)[C@H](CC(C)(C)O4)NC(=O)c3ccc4c(c3)[C@@H](CCO4)N(C(=N)N1)C(=O)C2 [Example 7, (1R,5R,9E,18S)-5-ethyl-3-imino-16,16-dimethyl-15,25-dioxa-2,4,19-triazahexacyclo[19. 6.2.22,5.211,14.013, 18.024,28] tritriaconta-9,11,13,21,23,28, 30-heptaene-20,33-dione] | 0.9
3 | CC[C@]12CCCCCc3ccc4c(c3)[C@H](CC(C)(C)O4)NC(=O)c3ccc4c(c3)[C@@H](CCO4)N(C(=N)N1)C(=O)C2 [Example 8, (1R,5R,18S)-5-ethyl-3-imino-16,16-dimethyl-15,25-dioxa-2,4,19-triazahexacyclo[19. 6.2.22,5.211,14.013, 18.024,28] tritriaconta-11,13,21,23,28,30-hexaene-20,33-dione] | 1.1
4 | CC[C@@]12CCCCCc3ccc4c(c3)[C@H](CC(C)(C)O4)NC(=O)c3ccc4c(c3)[C@@H](CCO4)N(C(=N)N1)C(=O)C2 [Example 9, (1R,5S,18S)-5-ethyl-3-imino-16,16-dimethyl-15,25-dioxa-2,4,19-triazahexacyclo[19. 6.2.22,5.211,14.013, 18.024,28] tritriaconta-11,13,21,23,28,30-hexaene-20,33-dione] | 76.5
5 | CC[C@]12CCC/C=C\Cc3ccc4c(c3)[C@H](CC(C)(C)O4)NC(=O)c3ccc4c(c3)[C@@H](CCO4)N(C(=N)N1)C(=O)C2 [Example 10, (1R,5R,9Z,19S)-5-ethyl-3-imino-17,17-dimethyl-16,26-dioxa-2,4,20-triazahexacyclo[20. 6.2.22,5.212,15.014, 19.025,29] tetratriaconta-9,12,14,22(30),23, 25(29),31-heptaene-21,34-dione] | 2.5
6 | CC[C@]12CCC/C=C/Cc3ccc4c(c3)OC(C)(C)C[C@@H]4NC(=O)c3ccc4c(c3)[C@@H](CCO4)N(C(=N)N1)C(=O)C2 [Example 11, (1R,5R,9E,20S)-5-ethyl-3-imino-18,18-dimethyl-17,27-dioxa-2,4,21-triazahexacyclo[21. 6.2.22,5.112,16.015, 20.026,30] tetratriaconta-9,12(32),13,15,23, 25,30-heptaene-22,34-dione] | 4.6
7 | CC[C@]12CCCCCCc3ccc4c(c3)[C@H](CC(C)(C)O4)NC(=O)c3ccc4c(c3)[C@@H](CCO4)N(C(=N)N1)C(=O)C2 [Example 12, (1R,5R,19S)-5-ethyl-3-imino-17,17-dimethyl-16,26-dioxa-2,4,20-triazahexacyclo[20. 6.2.22,5.212,15.014, 19.025,29] tetratriaconta-12,14,22(30),23, 25(29),31-hexaene-21,34-dione] | 1
8 | CC[C@@]12CCCCCCc3ccc4c(c3)OC(C)(C)C[C@@H]4NC(=O)c3ccc4c(c3)[C@@H](CCO4)N(C(=N)N1)C(=O)C2 [Example 13, (1R,5S,20S)-5-ethyl-3-imino-18,18-dimethyl-17,27-dioxa-2,4,21-triazahexacyclo[21. 6.2.22,5.112,16.015, 20.026,30] tetratriaconta-12(32),13,15,23,25, 30-hexaene-22,34-dione] | 22
9 | CC[C@]12CCCCCCc3ccc4c(c3)OC(C)(C)C[C@@H]4NC(=O)c3ccc4c(c3)[C@@H](CCO4)N(C(=N)N1)C(=O)C2 [Example 14, (1R,5R,20S)-5-ethyl-3-imino-18,18-dimethyl-17,27-dioxa-2,4,21-triazahexacyclo[21. 6.2.22,5.112,16.015, 20.026,30] tetratriaconta-12(32),13,15,23, 25,30-hexaene-22,34-dione] | 34
10 | CCC12CCCCCc3ccc4c(c3)[C@H](CC(C)(C)O4)NC(=O)c3ccc4c(c3)[C@@H]([C@H](COC)CO4)N(C(=N)N1)C(=O)C2 (stereo partly drawn) [Example 16A, (1R,18S,27R)-5-ethyl-3-imino-27-(methoxymethyl)-16,16-dimethyl-15,25-dioxa-2,4,19-triazahexacyclo[19. 6.2.22,5.211,14.013, 18.024,28] tritriaconta-11,13,21,23,28,30-hexaene-20,33-dione] | 61.5
